According to PMC8279484 (Journal of Medicinal Chemistry, 2021):
Several values for one entry are separate records, joined by “and”; a condition that tells them apart may be missing. Identical values can stand only once.

Tests used:
[1] = test system: IFNγ; experiment: LPS-induced IFNγ release from THP-1 Lucia monocytes (multiplex electrochemiluminescence); assay type: cell-based, human; settings: for IC50: Homo sapiens, THP-1; for IC50 / Imax, IFNγ release: LPS 50 ng/mL, 24 h; for Imax, IFNγ release: concentration–response
Protocol: LXA41 and all of the tested sLXms were dissolved in ethanol and further diluted in a culture medium (final ethanol concentration 0.1%; equivalent concentrations were used as the vehicle control). Prior to in vitro experiments, THP-1-Lucia NF-κB cells were harvested and plated at 1 × 10^5 cells/well on 96-well plates and left to settle in the incubator at 37 °C, 95% humidity, and 5% CO2, in 0.1% FBS-containing media, pretreated for 30 min with increasing doses of LXA41, sLXms (from 10^–12 to 10^–6 M), or appropriate controls, followed by stimulation with 50 ng/mL LPS for 24 h. Untreated (Unt) or vehicle-treated (Veh) cells were used as negative controls; 1 pM (1R)-5, the (1R)-epimer of the benzo-mimetic, was used as a positive control for any aromatic mimetic; and, finally, we compared the observed effects to the conventional glucocorticoid dexamethasone (Dex) treatment, at 1 μM.
After 24 h of exposure to LXA41, sLXms, or vehicle, followed by LPS stimulation (50 ng/mL), as described above, THP-1-Lucia NF-κB-cell supernatants were collected and cleared by centrifugation. Concentrations of IFN-γ, IL-1β, IL-6, IL-8, IL-10, IL-12p70, and TNF-α in culture supernatants were assessed by electro-chemi-luminescent detection, using a commercially available human 96-well plate “multiplex” (several analytes in the same well) kit for tissue culture samples, according to the manufacturers’ guidelines.
The “coding” of the heat-map indicates the arbitrary criteria to assign points to each single PD component (efficacy = Imax or Emax; potency = IC50 or EC50; slope = HS) to generate a final (aggregate) relative PD score. If a single PD component was greater than the reference level (x > 1), then the single-component relative score was arbitrarily set to +1 (light green) or +2 (dark green). If a single PD component was equal to the reference level (x = 1), then the single-component relative score was arbitrarily set to 0 (gray). If a single PD component was smaller than the reference level (x < 1), then the single-component relative score was arbitrarily set to −1 (light red) or −2 (dark red). If the curve of a single PD component was best fitting to a flat line (x = 0), then the single-component relative score was arbitrarily set to −4 (purple) (Table S1).

[2] = test system: THP-1-MF0 macrophage; experiment: Phagocytosis of fluorescent E. coli bioparticles by THP-1-MF0 macrophages; assay type: cell-based, human; settings: for EC50: Homo sapiens, Macrophage, 30 min pretreatment, read-out: Potency EC50; for EC50 / Efficacy Emax (%): 2 h bioparticles; for Efficacy Emax (%): 30 min pretreatment 1 fM–1 μM, figure expresses fold change
Protocol: Mycoplasma-free THP-1 monocytes were grown in an RPMI 1640 (Gibco) medium containing 2 mM L-glutamine, 2.00 g/L sodium bicarbonate, and 2.00 g/L glucose. Then, 10% (v/v) heat-inactivated FBS (30 min at 56 °C) and Pen-Strep (100 U/mL to 100 μg/mL) were supplemented to the growth media.
Cell adherence was allowed for 1 h and 30 min at 37 °C/5% CO2. Cells were then treated for 30 min with controls and phagocytosis effectors for testing (vehicle, LXs, Rvs, or sLXms). Subsequently, media containing controls/effectors were vacuum-aspirated and replaced with a solution containing fluorescently prelabeled E. coli-derived bioparticles and cells were incubated in the dark for 2 h at 37 °C/5% CO2 to allow particle ingestion by monocytes/macrophages. After that, media containing bioparticles were vacuum-aspirated and replaced with a solution containing trypan blue and cells were incubated for 1 min at room temperature to allow quenching of unbound particles to ensure specificity of the fluorescent signal, deriving only from ingested particles (not shown). After aspiration of Trypan, the fluorescence reading was immediately performed at the following conditions: end point; reading from the bottom of the plate; Ex.480/Em.520 nm.

CCCCC[C@@H](O)c1nc2ccccc2nc1/C=C/[C@@H](O)[C@@H](O)CCCC(=O)OC [(R)-6, Methyl (5S,6R,E)-5,6-Dihydroxy-8-(3-((R)-1-hydroxyhexyl)quinoxalin-2-yl)oct-7-enoate]
IC50 [1]: 1 pM
Imax, IFNγ release [1]: 62 ± 1%
EC50 [2]: 50 pM
Potency Rel. Pot. ([2]; relative to LXA4 (1)): 100
Single comp. score Rel. Pot. ([2]; relative to LXA4 (1)): 2 (x ≥ 5)

CCCCCCC[C@H](O)c1nc2ccccc2nc1/C=C/[C@@H](O)[C@@H](O)CCCC(=O)OC [(S)-8, Methyl (5S,6R,E)-5,6-Dihydroxy-8-(3-((S)-1-hydroxyoctyl)quinoxalin-2-yl)oct-7-enoate]
PD score, IFNγ release ([1]; relative to LXA4 (1)): negative PD scores

CCCCC[C@H](O)/C=C/C=C\C=C\C=C\[C@@H](O)[C@@H](O)CCCC(=O)O [Compound 1, LXA4]
IC50 [1]: 1 pM
Imax, IFNγ release [1]: 72 ± 4%
Efficacy Emax (%) [2]: 4.2 ± 0.5% and 4.2 ± 2%
concentration of peak phagocytosis ([2]; back to baseline at 1 μM): 100 nM
increase of phagocytosis ([2]; concentration-dependent, at peak): 4 fold
Efficacy Rel. Eff. ([2]; relative to LXA4 (1)): 0
Potency Rel. Pot. ([2]; relative to LXA4 (1)): 1

CCCCC[C@@H](O)c1c(/C=C/[C@@H](O)[C@@H](O)CCCC(=O)OC)nc(C)n1C [Compound 5, imidazolo-LXA4]
Efficacy Emax (%) [2]: 4.2 ± 0.7%
EC50 [2]: 10 pM
Potency Rel. Pot. ([2]; relative to LXA4 (1)): 500
Single comp. score Rel. Pot. ([2]; relative to LXA4 (1)): 2 (x ≥ 5)
